We go through 24 compounds from EP0536402A1, “PIPERIDINE DERIVATIVE” (NIPPON SHINYAKU COMPANY, LIMITED, priority 1990, dated 1992).

SMILES strings stand for the structures. Counter-ions that a name gives are not always drawn.

For the test, the target named is β -galactosidase. The experiment in a line: β-galactosidase inhibitory activity (colorimetric, O-nitrophenyl-β-D-galactopyranose substrate). The test is classed as biochemical, Aspergillus sp. The note with it: acetate buffer pH 5.0, 37°C, 15 minutes. Here is the method: The assay of this activity was carried out by permitting β -galactosidase to act on the substrate O-nitrophenyl-β -D-galactopyranose and quantitating O-nitrophenol, which was released on hydrolysis, colorimetrically. Thus, a mixture of 0.9 ml of 100 mM acetate buffer (pH 5.0), 0.1 ml of a solution of the test substance (dissolved in 100 mM acetate buffer at pH 5.0) and 0.5 ml of a 20 mM substrate solution was previously warmed at 37°C for […] and, then, dissolved in 10 mM acetate buffer at pH 5.0. Then, 0.5 ml of a solution of β -galactosidase was added and the reaction was conducted at 37°C for 15 minutes. The absorbance (A) at 420 nm was then measured. The absorbance (B) of a reaction mixture not containing the test substance was also measured and using the equation of % inhibition = (B - A)/B x 100 [formula] , the concentration of the test substance causing 50% inhibition of β -galactosidase activity (IC₅₀) was determined. The β -galactosidase derived from Aspergillus sp. was used. It is clear that the compound of the present invention has high β -galactosidase inhibitory activity.

For the compound `OC[C@H]1NC[C@H](O)[C@@H](O)[C@H]1O` [1-deoxygalactostatin hydrochloride, reference compound], the IC₅₀ runs as follows: (Test Example 1) 451 ng/mL; (Test Example 2) 440 ng/mL.
The compound `CN1C[C@H](O)[C@@H](O)[C@@H](O)[C@H]1CO` [Example 1, N-methyl-1-deoxygalactostatin] came in with an IC₅₀ (Test Example 1) of 15 ng/mL.
The same measure, in the same setting: in the case of `CCN1C[C@H](O)[C@@H](O)[C@@H](O)[C@H]1CO` [Example 2, N-ethyl-1-deoxygalactostatin] it was 82 ng/mL; in that of `CCCN1C[C@H](O)[C@@H](O)[C@@H](O)[C@H]1CO` [Example 3, N-n-propyl-1-deoxygalactostatin], 44 ng/mL.
Compound `CC(C)CN1C[C@H](O)[C@@H](O)[C@@H](O)[C@H]1CO` [Example 4, N-isobutyl-1-deoxygalactostatin] had an IC₅₀ (Test Example 1) of 40 ng/mL.
Regarding `CCCCCCCN1C[C@H](O)[C@@H](O)[C@@H](O)[C@H]1CO` [Example 5, N-n-heptyl-1-deoxygalacto-statin], the IC₅₀ (Test Example 1) amounted to 32 ng/mL.
Where the note is “Test Example 1”, `CCCCCCCCCCCCN1C[C@H](O)[C@@H](O)[C@@H](O)[C@H]1CO` [Example 6, N-n-dodecyl-1-deoxygalactostatin] returned an IC₅₀ of 23 ng/mL.
As to `OC[C@@H]1[C@H](O)[C@H](O)[C@@H](O)CN1CCCc1ccccc1` [Example 7, N-(3-phenylpropyl)-1-deoxygalactostatin], under “Test Example 1”, the IC₅₀ turned out to be 88 ng/mL.
As for `OC[C@@H]1[C@H](O)[C@H](O)[C@@H](O)CN1Cc1ccc(Cl)cc1` [Example 8, N-p-chlorobenzyl-1-deoxygalactostatin], the IC₅₀ (Test Example 1) is 180 ng/mL.
Consider `C=CCN1C[C@H](O)[C@@H](O)[C@@H](O)[C@H]1CO` [Example 9, N-allyl-1-deoxygalactostatin], for which, where the note is “Test Example 1”, the IC₅₀ came out at 187 ng/mL.
As for `OC[C@@H]1[C@H](O)[C@H](O)[C@@H](O)CN1CC=Cc1ccccc1` [Example 10, N-cinnamyl-1-deoxygalactostatin], for the setting “Test Example 1”, the IC₅₀ was determined as 175 ng/mL.
Compound `COCCN1C[C@H](O)[C@@H](O)[C@@H](O)[C@H]1CO` [Example 11, N-methoxyethyl-1-deoxygalactostatin] displayed an IC₅₀ (Test Example 2) of 59 ng/mL.
For the setting “Test Example 2”, `OC[C@@H]1[C@H](O)[C@H](O)[C@@H](O)CN1Cc1ccc(-c2ccccc2)cc1` [Example 12, N-(p-phenylbenzyl)-1-deoxygalactostatin] gave an IC₅₀ of 166 ng/mL.
In turn, `CCCCCN1C[C@H](O)[C@@H](O)[C@@H](O)[C@H]1CO` [Example 13, N-n-pentylnyl-1-deoxygalactostatin] gave an IC₅₀ (Test Example 2) of 113 ng/mL.
For `COc1ccc(CN2C[C@H](O)[C@@H](O)[C@@H](O)[C@H]2CO)cc1` [Example 14, N-p-methoxybenzyl-1-deoxygalactostatin], the IC₅₀ (Test Example 2) was determined as 391 ng/mL.
Under “Test Example 2”, `CSc1ccc(CN2C[C@H](O)[C@@H](O)[C@@H](O)[C@H]2CO)cc1` [Example 15, N-p-methylthiobenzyl-1-deoxygalactostatin] had an IC₅₀ of 393 ng/mL.
Where the note is “Test Example 2”, `OC[C@@H]1[C@H](O)[C@H](O)[C@@H](O)CN1CCc1ccccc1` [Example 16, N-phenylethyl-1-deoxygalactostatin] showed an IC₅₀ of 21 ng/mL.
Turning to `OC[C@@H](O)[C@H](O)[C@H](O)[C@@H](O)CN1C[C@H](O)[C@@H](O)[C@@H](O)[C@H]1CO` [Example 17, N-(1'-deoxygalactitoyl)-1-deoxygalactostatin], the IC₅₀ (Test Example 2) was found to be 49 ng/mL.
Take `CC(=O)Nc1ccc(CN2C[C@H](O)[C@@H](O)[C@@H](O)[C@H]2CO)cc1` [Example 18, N-(p-acetamidobenzyl)-1-deoxygalactostatin]: the IC₅₀ (Test Example 2) is 340 ng/mL.
Compound `OC[C@@H]1[C@H](O)[C@H](O)[C@@H](O)CN1CC1CCCCC1` [Example 20, N-cyclohexylmethyl-1-deoxygalactostatin] displayed an IC₅₀ (Test Example 2) of 37 ng/mL.
Regarding `CSCCCN1C[C@H](O)[C@@H](O)[C@@H](O)[C@H]1CO` [Example 21, N-(3'-methylthiopropyl)-1-deoxygalactostatin], for the setting “Test Example 2”, the IC₅₀ came to 49 ng/mL.
For `COc1ccc(CN2C[C@H](O)[C@@H](O)[C@@H](O)[C@H]2CO)cc1C` [Example 22, N-(3'-methyl-4'-methoxybenzyl)-1-deoxygalactostatin], the IC₅₀ (Test Example 2) was 359 ng/mL.
As for `CCCCN1C[C@H](O)[C@@H](O)[C@@H](O)[C@H]1CO` [Example 23, N-n-butyl-1-deoxygalactostatin], the IC₅₀ (Test Example 2) turned out to be 154 ng/mL.
In the case of `O=C(O)CCCN1C[C@H](O)[C@@H](O)[C@@H](O)[C@H]1CO` [Example 24, N-(3-carboxypropyl)-1-deoxygalactostatin], the IC₅₀ (Test Example 2) is 351 ng/mL.
